Reference: patent US4717767A, “7-amino-3-(pyrazinylmethyl) or (pyridazinylmethyl)-cephalosporins” (Toyama Chemical Co., Ltd., priority 1982, dated 1988)
Converted amounts (≈) assume the structure as drawn. Counter-ions that a name gives are not always drawn. Like-named read-outs stand apart in the source and are kept apart here.

Experiments:
Type in all cases: cell-based
[1] = system: E. coli NIHJ; assay: Antibacterial activity (MIC), E. coli NIHJ; settings: Escherichia coli; Heart Infusion agar, 37° C., 20 hours, 10^4 cells/plate (10^6 cells/ml)
From the text: (§1) The amount of the inoculated bacteria was 10^4 cells/plate (10^6 cells/ml).

[2] = system: E. coli TK-3; assay: Antibacterial activity (MIC), E. coli TK-3; settings: Escherichia coli
From the text: as §1

[3] = system: Kl. pneumoniae Y-50; assay: Antibacterial activity (MIC), Kl. pneumoniae Y-50; settings: Klebsiella pneumoniae, Y50; Heart Infusion agar, 37° C., 20 hours, 10^6 cells/ml
From the text: as §1

[4] = system: Kl. pneumoniae Y-41; assay: Antibacterial activity (MIC), Kl. pneumoniae Y-41; settings: Klebsiella pneumoniae, Y41; Heart Infusion agar, 37° C., 20 hours, 10^6 cells/ml
From the text: as §1

[5] = system: Kl. pneumoniae Y-4; assay: Antibacterial activity (MIC), Kl. pneumoniae Y-4; settings: Klebsiella pneumoniae, Y4; penicillinase-producing strain; Heart Infusion agar, 37° C., 20 hours, 10^6 cells/ml
From the text: as §1

[6] = system: Ser. marcescens W-134; assay: Antibacterial activity (MIC), Ser. marcescens W-134; settings: Serratia marcescens
From the text: as §1

[7] = system: Ser. marcescens IID620; assay: Antibacterial activity (MIC), Ser. marcescens IID620; settings: Serratia marcescens
From the text: as §1

[8] = system: Pro. morganii T-216; assay: Antibacterial activity (MIC), Pro. morganii T-216; settings: Morganella morganii, T216; Heart Infusion agar, 37° C., 20 hours, 10^6 cells/ml
From the text: as §1

[9] = system: Pro. mirabilis T-111; assay: Antibacterial activity (MIC), Pro. mirabilis T-111; settings: Proteus mirabilis
From the text: as §1

[10] = system: Pro. vulgaris GN76; assay: Antibacterial activity (MIC), Pro. vulgaris GN76; settings: Proteus vulgaris, cephalosporinase-producing strain, Heart Infusion agar, 37° C., 20 hours, 10^6 cells/ml
From the text: as §1

[11] = system: Cit. freundii N-7; assay: Antibacterial activity (MIC), Cit. freundii N-7; settings: Citrobacter freundii
From the text: as §1

[12] = system: Ps. aeruginosa GN918; assay: Antibacterial activity (MIC), Ps. aeruginosa GN918; settings: Pseudomonas aeruginosa, cephalosporinase-producing strain, Heart Infusion agar, 37° C., 20 hours, 10^6 cells/ml
From the text: as §1

[13] = TK3, penicillinase-producing strain, Heart Infusion agar, 37° C., 20 hours, 10^6 cells/ml, read-out: MIC
[14] = W134, Heart Infusion agar, 37° C., 20 hours, 10^6 cells/ml, read-out: MIC
[15] = IID620, Heart Infusion agar, 37° C., 20 hours, 10^6 cells/ml, read-out: MIC
[16] = T111, Heart Infusion agar, 37° C., 20 hours, 10^6 cells/ml, read-out: MIC
[17] = N7, Heart Infusion agar, 37° C., 20 hours, 10^6 cells/ml, read-out: MIC

SMILES	MIC [1]	MIC [2, 13]	MIC [3]	MIC [4]	MIC [5]	MIC [6, 14]	MIC [7, 15]	MIC [8]	MIC [9, 16]	MIC [10]	MIC [11, 17]	MIC [12]	MIC ([6]; W134, 20 h)	MIC ([11]; N7, 20 h)	MIC ([7]; IID620, 20 h)	MIC ([9]; T111, 20 h)	MIC ([2]; TK3, 20 h)
CO/N=C(\C(=O)NC1C(=O)N2C(C(=O)O)=C(Cn3ccn(C)c(=O)c3=O)CSC12)c1csc(N)n1 (stereo not drawn) [B, trifluoroacetic acid salt of 7-[2-(2-aminothiazol-4yl)-2-(syn)-methoxyiminoacetamido]-3-{[1-(4-methyl-2,3-dioxo-1,2,3,4-tetrahydropyrazinyl)]methyl}-Δ^3-cephem-4-carboxylic acid]	≤ 0.1 µg/mL	≤ 0.1 µg/mL	≤ 0.1 µg/mL	≤ 0.1 µg/mL	0.2 µg/mL	≤ 0.1 µg/mL	≤ 0.1 µg/mL	≤ 0.1 µg/mL	≤ 0.1 µg/mL	0.2 µg/mL	1.56 µg/mL	25 µg/mL	–	–	–	–	–
CCn1ccn(CC2=C(C(=O)O)N3C(=O)C(NC(=O)/C(=N\OCC(=O)O)c4csc(N)n4)C3SC2)c(=O)c1=O (stereo not drawn) [H, trifluoroacetic acid salt of 7-[2-(2-aminothiazol-4-yl)-2-(syn)-carboxymethoxyiminoacetamido]-3-{[1-(4-ethyl-2,3-dioxo-1,2,3,4-tetrahydropyrazinyl)]methyl}-Δ^3-cephem-4-carboxylic acid]	≤ 0.1 µg/mL	≤ 0.1 µg/mL	0.2 µg/mL	≤ 0.1 µg/mL	0.2 µg/mL	≤ 0.1 µg/mL	≤ 0.1 µg/mL	≤ 0.1 µg/mL	≤ 0.1 µg/mL	≤ 0.1 µg/mL	1.56 µg/mL	6.25 µg/mL	–	–	–	–	–
CO/N=C(\C(=O)NC1C(=O)N2C(C(=O)O)=C(Cn3nc(C)ccc3=O)CSC12)c1csc(N)n1 (stereo not drawn) [M, trifluoroacetic acid salt of 7-[2-(2aminothiazol-4-yl)-2-(syn)-methoxyiminoacetamido]-3-{[1-(3-methyl-6-oxo-1,6-dihydropyridazinyl)]methyl}-Δ^3-cephem-4-carboxylic acid]	≤ 0.1 µg/mL	0.2 µg/mL	0.2 µg/mL	–	–	–	0.2 µg/mL	0.2 µg/mL	0.2 µg/mL	0.2 µg/mL	0.78 µg/mL	–	0.78 µg/mL	–	–	–	–
Cn1ccn(CC2=C(C(=O)O)N3C(=O)C(NC(=O)/C(=N\OCC(=O)O)c4csc(N)n4)C3SC2)c(=O)c1=O (centres unmarked) [G]	≤ 0.1 µg/mL	0.2 µg/mL (≈ 0.354 µM)	0.2 µg/mL (≈ 0.354 µM)	≤ 0.1 µg/mL	0.2 µg/mL (≈ 0.354 µM)	≤ 0.1 µg/mL	≤ 0.1 µg/mL	≤ 0.1 µg/mL	≤ 0.1 µg/mL	≤ 0.1 µg/mL	1.56 µg/mL (≈ 2.76 µM)	–	–	–	–	–	–
Cc1ccc(=O)n(CC2=C(C(=O)O)N3C(=O)C(NC(=O)/C(=N\OCC(=O)O)c4csc(N)n4)C3SC2)n1 (centres unmarked) [N]	≤ 0.1 µg/mL	0.2 µg/mL (≈ 0.364 µM)	0.39 µg/mL (≈ 0.71 µM)	–	–	≤ 0.1 µg/mL	≤ 0.1 µg/mL	≤ 0.1 µg/mL	≤ 0.1 µg/mL	≤ 0.1 µg/mL	–	–	–	0.78 µg/mL (≈ 1.42 µM)	–	–	–
CO/N=C(\C(=O)NC1C(=O)N2C(C(=O)O)=C(Cn3ccncc3=O)CSC12)c1csc(N)n1 (stereo not drawn) [J, trifluoroacetic acid salt of 7-[2-(2-aminothiazol-4-yl)-2-(syn)-methoxyiminoacetamido]-3-{[1-(2-oxo-1,2-dihydropyrazinyl)]methyl}-Δ^3-cephem-4-carboxylic acid]	≤ 0.1 µg/mL	0.2 µg/mL	≤ 0.1 µg/mL	–	–	–	–	≤ 0.1 µg/mL	0.2 µg/mL	0.78 µg/mL	0.78 µg/mL	–	0.39 µg/mL	–	≤ 0.1 µg/mL	–	–
CCn1ccn(CC2=C(C(=O)O)N3C(=O)C(NC(=O)/C(=N\OC)c4csc(N)n4)C3SC2)c(=O)c1=O (stereo not drawn) [C, trifluoroacetic acid salt of 7-[2-(2-aminothiazol-4-yl)-2-(syn)-methoxyiminoacetamido]-3-{[1-(4-ethyl-2,3-dioxo-1,2,3,4-tetrahydropyrazinyl)]methyl}-Δ^3-cephem-4-carboxylic acid]	≤ 0.1 µg/mL	≤ 0.1 µg/mL	≤ 0.1 µg/mL	≤ 0.1 µg/mL	≤ 0.1 µg/mL	≤ 0.1 µg/mL	≤ 0.1 µg/mL	≤ 0.1 µg/mL	≤ 0.1 µg/mL	1.56 µg/mL	0.78 µg/mL	6.25 µg/mL	–	–	–	–	–
CO/N=C(\C(=O)NC1C(=O)N2C(C(=O)O)=C(Cn3ccn(C(C)C)c(=O)c3=O)CSC12)c1csc(N)n1 (stereo not drawn) [D, trifluoroacetic acid salt of 7-[2-(2-aminothiazol-4-yl)-(syn)-methoxyiminoacetamido]-3-{[1-(4-isopropyl-2,3-dioxo-1,2,3,4-tetrahydropyrazinyl)]methyl}-Δ^3-cephem-4-carboxylic acid]	≤ 0.1 µg/mL	≤ 0.1 µg/mL	≤ 0.1 µg/mL	≤ 0.1 µg/mL	0.39 µg/mL	≤ 0.1 µg/mL	≤ 0.1 µg/mL	≤ 0.1 µg/mL	–	0.39 µg/mL	1.56 µg/mL	–	–	–	–	0.2 µg/mL	–
Nc1nc(/C(=N/OCC(=O)O)C(=O)NC2C(=O)N3C(C(=O)O)=C(Cn4cc[nH]c(=O)c4=O)CSC23)cs1 (stereo not drawn) [F, 7-[2-(2-aminothiazol-4-yl)-2-(syn)-carboxymethoxyiminoacetamido]-3-{[1-(2,3-dioxo-1,2,3,4-tetrahydropyrazinyl)]methyl}-Δ^3-cephem-4-carboxylic acid]	≤ 0.1 µg/mL	≤ 0.1 µg/mL	≤ 0.1 µg/mL	0.39 µg/mL (≈ 0.707 µM)	0.2 µg/mL (≈ 0.363 µM)	–	≤ 0.1 µg/mL	≤ 0.1 µg/mL	≤ 0.1 µg/mL	≤ 0.1 µg/mL	0.78 µg/mL (≈ 1.41 µM)	–	≤ 0.1 µg/mL	–	–	–	–
CO/N=C(\C(=O)NC1C(=O)N2C(C(=O)O)=C(Cn3cc[nH]c(=O)c3=O)CSC12)c1csc(N)n1 (stereo not drawn) [A, trifluoroacetic acid salt of 7-[2-(2-aminothiazol-4-yl)-2-(syn)-methoxyiminoacetamido]-3-{[1-(2,3-dioxo-1,2,3,4-tetrahydropyrazinyl)]methyl}-Δ^3-cephem-4-carboxylic acid]	≤ 0.1 µg/mL	≤ 0.1 µg/mL	≤ 0.1 µg/mL	≤ 0.1 µg/mL	≤ 0.1 µg/mL	≤ 0.1 µg/mL	≤ 0.1 µg/mL	≤ 0.1 µg/mL	≤ 0.1 µg/mL	≤ 0.1 µg/mL	0.39 µg/mL	12.5 µg/mL	–	–	–	–	–
CN(C)n1ccn(CC2=C(C(=O)O)N3C(=O)C(NC(=O)/C(=N\OCC(=O)O)c4csc(N)n4)C3SC2)c(=O)c1=O (stereo not drawn) [I, trifluoroacetic acid salt of 7-[2-(2-aminothiazol-4-yl)-2-(syn)-carboxymethoxyiminoacetamido]-3-{[1-(4-dimethylamino-2,3-dioxo-1,2,3,4-tetrahydropyrazinyl)]methyl}-Δ^3-cephem-4-carboxylic acid]	≤ 0.1 µg/mL	≤ 0.1 µg/mL	0.2 µg/mL	0.2 µg/mL	0.39 µg/mL	–	≤ 0.1 µg/mL	≤ 0.1 µg/mL	≤ 0.1 µg/mL	≤ 0.1 µg/mL	1.56 µg/mL	12.5 µg/mL	≤ 0.1 µg/mL	–	–	–	–
CO/N=C(\C(=O)NC1C(=O)N2C(C(=O)O)=C(Cn3ccn(N(C)C)c(=O)c3=O)CSC12)c1csc(N)n1 (stereo not drawn) [E, trifluoroacetic acid salt of 7-[2-(2-aminothiazol-4-yl)-2-(syn)-methoxyiminoacetamido]-3-{[1-(4-dimethylamino-2,3-dioxo-1,2,3,4-tetrahydropyrazinyl)]-methyl}-Δ^3-cephem-4-carboxylic acid]	≤ 0.1 µg/mL	≤ 0.1 µg/mL	≤ 0.1 µg/mL	≤ 0.1 µg/mL	≤ 0.1 µg/mL	≤ 0.1 µg/mL	≤ 0.1 µg/mL	≤ 0.1 µg/mL	≤ 0.1 µg/mL	1.56 µg/mL	0.78 µg/mL	–	–	–	–	–	–
Nc1nc(/C(=N/OCC(=O)O)C(=O)NC2C(=O)N3C(C(=O)O)=C(Cn4[nH]c(=O)ccc4=O)CSC23)cs1 (stereo not drawn) [L, formic acid salt of 7-[2-(2-aminothiazol-4-yl)-2-(syn)-carboxymethoxyiminoacetamido]-3-{[1-(3,6-dioxo-1,2,3,6-tetrahydropyridazinyl)]methyl}-Δ^3-cephem-4-carboxylic acid]	≤ 0.1 µg/mL	0.78 µg/mL	0.78 µg/mL	–	–	–	–	≤ 0.1 µg/mL	≤ 0.1 µg/mL	≤ 0.1 µg/mL	–	–	≤ 0.1 µg/mL	3.13 µg/mL	1.56 µg/mL	–	–
CO/N=C(\C(=O)NC1C(=O)N2C(C(=O)O)=C(Cn3[nH]c(=O)ccc3=O)CSC12)c1csc(N)n1 (stereo not drawn) [K, trifluoroacetic acid salt of 7-[2-(2-aminothiazol-4-yl)-2-(syn)-methoxyiminoacetamido]-3-{[1-(3,6-dioxo-1,2,3,6-tetrahydropyridazinyl)]methyl}-Δ^3-cephem-4-carboxylic acid]	≤ 0.1 µg/mL	–	≤ 0.1 µg/mL	–	–	≤ 0.1 µg/mL	≤ 0.1 µg/mL	≤ 0.1 µg/mL	≤ 0.1 µg/mL	≤ 0.1 µg/mL	–	–	–	0.78 µg/mL	–	–	0.2 µg/mL
